This is an account of results in patent US20100204286A1, “METHOD FOR REDUCING GASTROINTESTINAL ADVERSE EFFECTS OF CYTOTOXIC AGENTS” (priority 2009, published 2010).

Series [1] deals with NF-κB-dependent transcription. The experiment in a line: TNFα-induced activation of NF-κB in recombinant HeLa reporter cells (luciferase). The format is cell-based. The text has this:
To test the ACE2 inhibitor ORE1001 for anti-inflammatory activity relevant to IBD, effects of the compound on activation of NF-κB-dependent transcription by TNFα were examined in recombinant reporter cells containing a construct with a luciferase reporter gene under control of NF-κB-dependent regulatory sequences, thereby allowing detection of NF-κB-dependent transcription by measuring reporter enzyme using a conventional luciferase activity assay based on detection of generated light.
In particular, HeLa cells (American Type Culture Collection) were grown in Dulbecco's modified Eagles medium (DMEM) supplemented with 10% fetal calf serum and transiently transfected with an NF-κB—luc construct (Stratagene, Inc.), as follows (with all incubation steps at 37 C unless otherwise indicated). Cells were seeded and grown to about 70% confluency in a 10 cm cell culture dish. Plasmid DNA (10 μg) was added to 1 ml serum free DMEM media in a tube. Fugene 6 transfection reagent (30 μl) (Roche) was then pipetted slowly into the tube and the contents were gently mixed by inversion. The mixture was incubated at room temperature for 15 minutes and then added dropwise to cells in one 10 cm dish. Following incubation for 24 hours, cells were detached from the plate with Trypsin-EDTA (Gibco-BRL), transferred to wells in a clear-bottom white 96-well test plate (Fisher) with 100 μl per well serum free DMEM, at a density of 3×10^4 cells per well, and allowed to attach overnight. Compound (ORE1001) was then added to wells at a concentration of approximately 0, 0.008, 0.04, 0.2, 1.0 or 5.0 μM, followed immediately by addition of TNFα (R&D) to a final concentration of 20 ng/ml. After incubation for 6 hours, 100 μl of Bright-Glo Luciferase buffer (Promega, Cat#E2610) was added, and the plate was incubated at room temperature, with mild shaking, for 10 min. Bioluminescence was then measured using a Veritas luminometer (Turner BioSystems). Each plotted data point represents the average bioluminescence of 4 independent wells.

Series [2] concerns NF-κB-dependent transcription. Put plainly: In vivo basal NF-κB-dependent transcription in NF-κB::Luc reporter mice (abdominal imaging). The conditions noted are these: 4 hours. An excerpt: ORE1001 was further tested for in vivo anti-inflammatory activity by examining its effects on basal levels of NF-κB-dependent transcription in mice engineered in the germline with a construct containing an NF-κB enhancer linked to a luciferase gene (i.e., NF-κB::Luc mice), such that this NF-κB reporter construct is present in all cells of the mice.
More particularly, transgenic NF-κB::Luc mice were generated using three NF-κB response elements from the Igic light chain promoter fused to a firefly luciferase gene as described by Carlsen et al. (2002) J. Immunol. 168:1441-1446. Pronuclear microinjection of purified construct DNA was used to generate transgenic founders in the C57BL/6 XCBA/J background. Founders were subsequently back crossed to the C57BL/6 albino background. […] Signal data were also quantitated and archived using the Living Image® software. Photons of light were quantitated using an oval region of interest (ROI) of varying sizes depending on the procedure, as described further below.
To test for in vivo effects of ORE1001 on basal levels of NF-κB-dependent transcription, male NF-κB::Luc mice were subjected to quantitative in vivo imaging of the abdominal area (using a fixed ROI of 2.76×3.7 cm) as described above, immediately before, and at 2, […]

For series [3], the system named is activator protein-1 (AP-1). Put plainly: Basal in vivo reporter luciferase expression in AP-1::Luc mice. As to conditions: data not shown.
For series [4], the system named is LPS-induced NF-κB signaling. Put plainly: In vivo LPS-induced NF-κB-dependent transcription in NF-κB::Luc mice (abdominal imaging). An excerpt:
More particularly, transgenic NF-κB::Luc mice were generated using three NF-κB response elements from the Igic light chain promoter fused to a firefly luciferase gene as described by Carlsen et al. (2002) J. Immunol. 168:1441-1446. Pronuclear microinjection of purified construct DNA was used to generate transgenic founders in the C57BL/6 XCBA/J background. Founders were subsequently back crossed to the C57BL/6 albino background. All experimental protocols were approved by the Institutional Animal Care and Use Committee and conform to the ILAR guide for the care and used of laboratory animals. […] Signal data were also quantitated and archived using the Living Image® software. Photons of light were quantitated using an oval region of interest (ROI) of varying sizes depending on the procedure, as described further below.
ORE1001 was further tested for in vivo anti-inflammatory activity by examining its effects on bacterial LPS-induced NF-κB-dependent transcription, in NF-κB::Luc mice. […] Mice were subjected to quantitative abdominal imaging at 2, 4 and 6 h following LPS administration, as described above. […] Luciferase signal was quantitated from several regions of interest. […]
As shown by the quantitative imaging data in FIG. 4, LPS induced a strong NF-κB-dependent luciferase signal in control mice, indicating a strong NF-κB signaling response, as expected. […]

For series [5], the system named is LPS-induced NF-κB-dependent transcription. The experiment in a line: LPS-induced NF-κB-dependent transcription in extracted organs of NF-κB::Luc mice (luciferase assay). The format is in vivo. As to conditions: 30 mg/kg; 0.5 mg/kg LPS; versus LPS alone. An excerpt: For luciferase assays, organs were extracted and snap frozen in liquid nitrogen. All tissue samples were placed in lysis buffer with inhibitors (Passive Lysis Buffer (Promega) and Complete Mini Protease Inhibitor Cocktail (Roche, Indianapolis, Ind.)), and were homogenized using a tissue homogenizer (Handishear, Hand-held homogenizer, VirTis, Gardiner, N.Y.). Tissue homogenates were centrifuged and clarified lysates were used for luminometer assays and western blots. For the luminometer assays, Luciferase Assay Substrate (Luciferase Assay System, Promega) was prepared as indicated by the manufacturer and placed in disposable cuvettes. […] Background luminescence readings were obtained and the background readings were subtracted from the luminescent data. Protein concentrations were determined using the BCA Protein Assay Kit (Pierce, Rockford, Ill.) following the manufacturer's protocols and analyzed using a VERSAmax tunable microplate reader and associated Softmax Pro version 3.1.2 software (Molecular Devices, Sunnyvale Calif.). The luminescence for each of the protein lysates was calculated as arbitrary units of light per microgram of protein. […]
ORE1001 was further tested for in vivo anti-inflammatory activity by examining its effects on bacterial LPS-induced NF-κB-dependent transcription, in NF-κB::Luc mice. […] Luciferase signal was quantitated from several regions of interest. […]

Series [6] relates to radiation-induced proctitis. The experiment in a line: Rat model of radiation-induced proctitis (endoscopy, histopathology, body weight). The format is in vivo. As to conditions: for proctitis severity (endoscopy, day 8): 17.5 Gy on day 0. The text has this: A rat model was used to determine whether ORE1001 can reduce severity of radiation-induced proctitis, as assessed by endoscopy, and can reduce histopathological indicators of radiation-induced proctitis. This is a validated model, as described for example in the publications cited individually below and incorporated herein by reference.
Female Lewis rats of body weight 175-200 g and 6-8 weeks old were randomized into 3 groups of 8 animals each, for induction of proctitis by radiation as described below. In addition, a group of 8 female Lewis rats of body weight 175-200 g and 6-8 weeks old were followed as untreated, non-irradiated controls. Animals were acclimated prior to study commencement. The study was performed in animal rooms provided with filtered air at a temperature of 70±5° F. (˜21±3° C.) and relative humidity of 50±20%, and a 12 h/12 h light/dark cycle. Animals were fed with LabDiet 5053 sterile irradiated rat chow. Water was provided ad libitum.
Proctitis was induced by a single 17.5 Gy dose of radiation at a rate of 1 Gy/minute administered to each animal on day 0. Lead shielding was used to cover the animal except for a 3×4 cm area of the lower pelvis, permitting exposure to radiation of an approximately 2 cm length of rectum and distal descending colon. Radiation was generated with a Kimtron 160 kV, 15 mA source at a focal distance of 30 cm, hardened with a 0.35 mm Cu filtration system. Prior to irradiation, animals were anesthetized with an intraperitoneal injection of ketamine (100 mg/kg) and xylazine (5 mg/kg). Animals were inclined in a slightly head-down position, to allow gravity to move non-target abdominal organs out of the radiation path as much as possible.
ORE1001 in a vehicle of 0.5% carboxymethylcellulose (CMC) in sterile water was administered per os at a daily dose of 600 mg/kg in 5 ml/kg vehicle from day 0 to day 7 (first group) or from day −2 to day 7 (second group). A third group received vehicle only, from day −2 to day 7.
All animals were weighed daily and examined for diarrhea and fecal blood. On day 8, all animals were examined by rodent endoscope under isoflurane anesthesia and were scored for severity of proctitis. Following endoscopy, animals were euthanized by CO2 inhalation and the descending colon and rectum to the anus were taken as a single tissue sample for histological examination. Histopathology was recorded by scoring inflammation, edema and necrosis.

Setting [7] is: 600 mg/kg per os daily, day 0 to day 7.
[8] abbreviates: 600 mg/kg per os daily, day −2 to day 7.

Turning to `CC(C)C[C@H](N[C@@H](Cc1cncn1Cc1cc(Cl)cc(Cl)c1)C(=O)O)C(=O)O` [ORE1001, (S,S)-2-[1-carboxy-2-[3-(3,5-dichlorobenzyl)-3H-imidazol-4-yl]-ethylamino]-4-methylpentanoic acid], in series [1] (8 nM, TNFα 20 ng/ml, 6 hours, HeLa), the “inhibition of TNFα-induced activation of NF-κB-dependent transcription” value is on record as “over 80%”. For the same compound, the “maximal inhibition of TNFα-induced activation of NF-κB-dependent transcription” value in series [1] (0.2 μM, TNFα 20 ng/ml, 6 hours, HeLa) was “over 95%”. Further, the “TNFα-induced activation of NF-κB-dependent transcription” value in series [1] (all tested concentrations (0.008-5.0 μM)) is given as “significantly inhibited”. Moreover, the “inhibition of basal in vivo levels of NF-κB-dependent transcription in abdominal ROI” value in series [2] (300 mg/kg subcutaneous, p<0.01) is reported as “over 40%”. Besides, in series [2] (both lower doses, subcutaneous), the “inhibition of basal in vivo levels of NF-κB-dependent transcription in abdominal ROI” value is “lesser but still significant extents”. Further, the “basal in vivo levels of reporter luciferase expression” value in series [3] is reported as “no significant effect”. Also, the “LPS-induced NF-κB signaling response, abdominal region” value in series [4] (FIG. 4, 30, 100, 300 mg/kg subcutaneous 1 hour before LPS i.v.) was “significantly reduced”. Further, the “LPS-induced NF-κB signaling, abdominal region” value in series [4] (FIG. 5, lower dose range 3-100 mg/kg, at 30 and 100 mg/kg) is “significantly reduced”. In series [5], the “LPS-induced NF-κB signaling in pancreas and uterus, or any other organ analyzed” value is on record as “no statistically significant decrease”; the “reduction of LPS-induced NF-κB-dependent transcription in stomachs” value is given as “about 37 fold”. Besides, in series [6] (setting [7]), the “edema score (histopathology)” value is listed as “statistically non-significant trend for reduction”; the “necrosis score (histopathology)” value was “statistically non-significant trend for reduction”; the “sum score (histopathology)” value is “statistically non-significant trend for reduction”; the “proctitis severity (endoscopy, day 8)” value is “minor but statistically non-significant reduction”. For the same compound, in series [6] (setting [8]), the “inflammation score (histopathology)” value was “statistically significant reductions”; the “necrosis score (histopathology)” value is given as “statistically significant reductions”; the “sum of inflammation, edema and necrosis scores” value was “statistically significant reductions”; the “proctitis severity (endoscopy, day 8)” value is “substantial reduction”. Besides, the body weight change entry in series [6] (among the treatments) was “No major differences”.
